Measurements published in ChEMBL document CHEMBL4622916, “Synthesis of tetracyclic oxindoles and evaluation of their α-glucosidase inhibitory and glucose consumption-promoting activity” (Bioorg Med Chem Lett, 2020).
Active and inactive are the calls of the source. The rule behind the calls is not given here.

How the values were obtained:
[1] = Inhibition of alpha-glucosidase (unknown origin); set-up: species or system Homo sapiens
[2] = system: HepG2; assay: Cytotoxicity against human HepG2 cells; format: cell-based
[3] = organism: Homo sapiens; assay: Reversible competitive inhibition of alpha-glucosidase (unknown origin) by Lineweaver-Burk plot analysis
[4] = organism: Homo sapiens; assay: Potency index, ratio of IC50 of acarbose to IC50 of compound for inhibition of alpha-glucosidase (unknown origin)
[5] = system: HepG2; assay: Increase in glucose consumption in human HepG2 cells at 1 to 5 uM; format: functional, cell-based

SMILES	IC50 [1] [µM]	other results
COC(=O)/C=C/c1ccc2c(c1)C1(C(=O)N2Cc2ccc(OC)cc2)[C@H](C(=O)/C=C/c2ccc(-c3ccccc3)cc2)[C@@H](c2ccc(-c3ccccc3)cc2)[C@@H]2CSCN21 (stereo not given in full)	4.14	
O=C(/C=C/c1ccccc1Cl)[C@@H]1[C@@H](c2ccccc2Cl)[C@@H]2CSCN2C12C(=O)Nc1ccccc12 (stereo not given in full)	9.8	
COC(=O)/C=C/c1ccc2c(c1)C1(C(=O)N2Cc2ccc(OC)cc2)[C@H](C(=O)/C=C/c2ccccc2Br)[C@@H](c2ccccc2Br)[C@@H]2CSCN21 (stereo not given in full)	4.68	
O=C(/C=C/c1ccccc1)[C@@H]1[C@@H](c2ccccc2)[C@@H]2CSCN2C12C(=O)Nc1ccccc12 (stereo not given in full)	16.1	
COC(=O)/C=C/c1ccc2c(c1)C1(C(=O)N2Cc2ccc(OC)cc2)[C@H](C(=O)/C=C/c2ccc(Br)cc2)[C@@H](c2ccc(Br)cc2)[C@@H]2CSCN21 (stereo not given in full)	8.44	
CCN(CC)c1ccc(/C=C/C(=O)[C@@H]2[C@@H](c3ccc(N(CC)CC)cc3)[C@@H]3CSCN3C23C(=O)N(Cc2ccc(OC)cc2)c2ccc(/C=C/C(=O)OC)cc23)cc1 (stereo not given in full)	7.43	
COc1ccc(CN2C(=O)C3(c4cc(Br)ccc42)[C@H](C(=O)/C=C/c2ccc(Cl)cc2Cl)[C@@H](c2ccc(Cl)cc2Cl)[C@@H]2CSCN23)cc1 (stereo not given in full)	14.1	
COC(=O)/C=C/c1ccc2c(c1)C1(C(=O)N2Cc2ccc(OC)cc2)[C@H](C(=O)/C=C/c2ccc(Cl)cc2Cl)[C@@H](c2ccc(Cl)cc2Cl)[C@@H]2CSCN21 (stereo not given in full)	4.49	
C[C@H]1O[C@H](O[C@H]2[C@H](O)[C@@H](O)[C@@H](O[C@H]3[C@H](O)[C@@H](O)C(O)O[C@@H]3CO)O[C@@H]2CO)[C@H](O)[C@@H](O)[C@@H]1N[C@H]1C=C(CO)[C@@H](O)[C@H](O)[C@H]1O (stereo not given in full) [ACARBOSE]	50.3	
COc1ccc(CN2C(=O)C3(c4cc(Br)ccc42)[C@H](C(=O)/C=C/c2ccccc2Br)[C@@H](c2ccccc2Br)[C@@H]2CSCN23)cc1 (stereo not given in full)	4.09	
COc1ccc(CN2C(=O)C(=O)c3cc(Br)ccc32)cc1	39.9	
COC(=O)/C=C/c1ccc2c(c1)C1(C(=O)N2Cc2ccc(OC)cc2)[C@H](C(=O)/C=C/c2ccccc2)[C@@H](c2ccccc2)[C@@H]2CSCN21 (stereo not given in full)	8.33	
O=C(/C=C/c1ccc(Cl)cc1Cl)[C@@H]1[C@@H](c2ccc(Cl)cc2Cl)[C@@H]2CSCN2C12C(=O)Nc1ccccc12 (stereo not given in full)	7.4	
O=C(/C=C/c1ccc(Cl)cc1)[C@@H]1[C@@H](c2ccc(Cl)cc2)[C@@H]2CSCN2C12C(=O)Nc1ccc(Br)cc12 (stereo not given in full)	4.9	
Cc1ccc(/C=C/C(=O)[C@@H]2[C@@H](c3ccc(C)cc3)[C@@H]3CSCN3C23C(=O)Nc2ccccc23)cc1 (stereo not given in full)	18.9	
CN(C)c1ccc(/C=C/C(=O)[C@@H]2[C@@H](c3ccc(N(C)C)cc3)[C@@H]3CSCN3C23C(=O)Nc2ccccc23)cc1 (stereo not given in full)	4.81	
O=C(/C=C/c1ccccc1Br)[C@@H]1[C@@H](c2ccccc2Br)[C@@H]2CSCN2C12C(=O)Nc1ccccc12 (stereo not given in full)	4.47	
COc1ccc(CN2C(=O)C3(c4cc(Br)ccc42)[C@H](C(=O)/C=C/c2ccc(N(C)C)cc2)[C@@H](c2ccc(N(C)C)cc2)[C@@H]2CSCN23)cc1 (stereo not given in full)	3.64	Activity [2]: Non-Toxic; inhibition [3]: Active; Ratio IC50 [4]: 14; Activity [5]: Active
COC(=O)/C=C/c1ccc2c(c1)C1(C(=O)N2Cc2ccc(OC)cc2)[C@H](C(=O)/C=C/c2ccc(Cl)cc2)[C@@H](c2ccc(Cl)cc2)[C@@H]2CSCN21 (stereo not given in full)	4.73	
COC(=O)/C=C/c1ccc2c(c1)C1(C(=O)N2Cc2ccc(OC)cc2)[C@H](C(=O)/C=C/c2ccc(OC)cc2)[C@@H](c2ccc(OC)cc2)[C@@H]2CSCN21 (stereo not given in full)	3.81	
COC(=O)/C=C/c1ccc2c(c1)C1(C(=O)N2Cc2ccc(OC)cc2)[C@H](C(=O)/C=C/c2ccc(N(C)C)cc2)[C@@H](c2ccc(N(C)C)cc2)[C@@H]2CSCN21 (stereo not given in full)	9.47	
COC(=O)/C=C/c1ccc2c(c1)C1(C(=O)N2Cc2ccc(OC)cc2)[C@H](C(=O)/C=C/c2ccc(F)cc2)[C@@H](c2ccc(F)cc2)[C@@H]2CSCN21 (stereo not given in full)	4.47	
O=C(/C=C/c1ccc(Cl)cc1)[C@@H]1[C@@H](c2ccc(Cl)cc2)[C@@H]2CSCN2C12C(=O)Nc1ccccc12 (stereo not given in full)	7.49	
O=C(/C=C/c1ccco1)[C@@H]1[C@@H](c2ccco2)[C@@H]2CSCN2C12C(=O)Nc1ccccc12 (stereo not given in full)	> 50	
COc1ccc(CN2C(=O)C3(c4cc(Br)ccc42)[C@H](C(=O)/C=C/c2ccc(Cl)cc2)[C@@H](c2ccc(Cl)cc2)[C@@H]2CSCN23)cc1 (stereo not given in full)	3.9	
COc1ccc(/C=C/C(=O)[C@@H]2[C@@H](c3ccc(OC)c(OC)c3)[C@@H]3CSCN3C23C(=O)Nc2ccccc23)cc1OC (stereo not given in full)	> 50	
